Key:
[1] = test system: CD20-expressing Raji cells pre-treated with Rituximab(RTX)–TCO; experiment: Cell binding studies on Raji cells pre-treated with RTX-TCO or non-modified RTX; format: cell-based, human; set-up: concentration or dose not given beside the values; details: radioligand 30 min, 37 °C
Procedure: CD20-expressing Raji cells ([…] lymphoblast-like B-lymphocyte cells) were obtained from the American Type Culture Collection (ATCC, Manassas, Virginia, USA). The cells were cultured in tissue culture flasks (Cellstar; Greiner Bio-One, Kremsmuenster, Austria) using RPMI-1640 medium with 10% (v/v) fetal bovine serum (FBS) as supplement (Invitrogen Corporation, Lofer, Austria). For cell binding studies 10 × 10^6 cells were washed twice with fresh medium, diluted with PBS to a final concentration of 1 × 10^6 cells per mL and 500 µL of cell suspension was transferred to Eppendorf tubes. Hereafter, 50 µL of RTX–TCO or non-modified RTX as negative control (both 0.5 µM) was added and the cell suspension was maintained at 37 °C under gentle shaking. After 1 h the suspension was centrifuged (2 min, 11 × 10^3 rcf), the supernatant was discarded and the cells were washed twice with 600 µL PBS and finally resuspended with 450 µL PBS. Subsequently 50 µL of the radioligand solution (22 nM) was added and the suspension was incubated for 30 min at 37 °C. After centrifugation and two washing steps with 600 µL PBS, the cells were resuspended in 500 µL PBS and transferred to polypropylene vials for gamma counter measurement followed by calculation of cell-associated activity in comparison to the total activity applied (n = 3, six replicates).

[2] = test system: TCO-alendronate pre-treated mice (bone); experiment: PET/CT and optical imaging in the alendronate-TCO bone pretargeting model; format: in vivo, BALB/c mice; details: TCO-alendronate pre-treated mice vs alendronate alone; PET/CT 1 h p.i., OI of excised bones 24 h p.i.
Procedure: For the proof of concept of pretargeting in vivo a model described by Yazdani et al. was applied, based on TCO-modified alendronate for bone targeting. For preparation of TCO–alendronate, briefly, 20 mg sodium alendronate trihydrate (Sigma Aldrich) was dissolved in 400 µL 0.1N sodium-bicarbonate solution pH 8.5. Then 0.6 mL TCO–NHS ester (Click chemistry tools, Scottsdale, AZ, USA), 20 mg/mL in DMSO, were slowly added to the solution and stirred overnight in the dark, followed by freeze drying. As a control the same preparation was prepared, replacing TCO–NHS solution by the same volume of DMSO. For injection in mice the residue was dissolved in water and adjusted to pH 7 (30 mM).
MicroPET/CT images were acquired with an Albira PET/SPECT/CT small animal imaging system (Bruker Biospin Corporation, Woodbridge, CT, USA). […] After reconstruction, acquired data was viewed and analyzed with PMOD software (PMOD Technologies Ltd., Zurich, Switzerland).
Near-infrared in vivo fluorescence imaging was performed with an In-Vivo MS FX PRO small animal imaging system (Bruker Biospin Corporation, Woodbridge, CT, USA) after the PET/CT investigation. […] An appropriate filter set (λex = 710 nm and λem = 790 nm) was used for acquiring the fluorescence of the IRDye800CW-conjugates ex vivo. […] Acquired images were analyzed using Bruker MI SE software (Bruker Biospin Corporation, Woodbridge, CT, USA).

[3] = format: physicochemical; details: pH 7.4
Procedure: To determine the hydrophilicity the distribution of the ^68Ga-labeled conjugates between an organic (octanol) and aqueous (PBS) layer was assessed. Aliquots (50 µL) of the ^68Ga-labeled tracers (~5 µM) were diluted in 1 mL of octanol/PBS (1:1, v/v) and the mixture was vortexed at 1400 rpm (MS 3 basic vortexer, IKA, Staufen, Germany) for 15 min at RT. Subsequently the mixture was centrifuged for 2 min at 4500 rpm followed by measuring aliquots (50 µL) of both layers in the gamma counter (Wizard^2 3”, Perkin Elmer, Waltham, MA, USA). LogD was calculated using Microsoft Excel (n = 3, six replicates).

[4] = set-up: species or system BALB/c mice; details: mouse, in vivo, iv
Procedure: Biodistribution studies of the FSC-based hybrid imaging agents radiolabeled with Gallium-68 were performed using healthy five-week-old female BALB/c mice (Charles River Laboratories, Sulzfeld, Germany). Animals (n = 3) were injected via lateral tail vein with 1 nmol of conjugate and a total activity of approximately 6 MBq. Mice were sacrificed by cervical dislocation 1 h p.i. followed by collection of the main organs and tissue, subsequent gamma counter measurement and calculation of the percentage of injected activity per gram tissue (% IA/g).

Row | Structure (SMILES) | Cell binding (cell-associated activity of total activity applied) [1] [%] | Bone uptake in PET/CT and optical imaging [2] | logD [3] | Organ activities compared with SulfoCy5 and IRDye800CW counterparts [4]
1 | C/C1=C/C(=O)N(O)CCC[C@H](NC(=O)CCOCCOCCOCCOCCOCCC(=O)NCc2ccc(-c3nncnn3)cc2)C(=O)OCC/C(C)=C\C(=O)N(O)CCC[C@H](NC(=O)CCOCCOCCOCCOCCOCCC(=O)NCc2ccc(-c3nncnn3)cc2)C(=O)OCC/C(C)=C\C(=O)N(O)CCC[C@H](NC(=O)CCCCC[N+]2=C(/C=C/C3=C(Oc4ccc(S(=O)(=O)O)cc4)C(=C/C=C4/N(CCCCS(=O)(=O)O)c5ccc(S(=O)(=O)O)cc5C4(C)C)/CCC3)C(C)(C)c3cc(S(=O)(=O)[O-])ccc32)C(=O)OCC1 [IRDye800CW-FSC-(PEG5-Tz)2] | 4.59 ± 1.45 | high accumulation in joints and spine | -2.46 ± 0.09 | 
2 | CC(=O)N[C@H]1CCCN(O)C(=O)/C=C(/C)CCOC(=O)[C@@H](NC(=O)CCOCCOCCOCCOCCOCCC(=O)NCc2ccc(-c3nncnn3)cc2)CCCN(O)C(=O)/C=C(/C)CCOC(=O)[C@@H](NC(=O)CCCCC[N+]2=C(/C=C/C3=C(Oc4ccc(S(=O)(=O)O)cc4)C(=C/C=C4/N(CCCCS(=O)(=O)O)c5ccc(S(=O)(=O)O)cc5C4(C)C)/CCC3)C(C)(C)c3cc(S(=O)(=O)[O-])ccc32)CCCN(O)C(=O)/C=C(/C)CCOC1=O [IRDye800CW-MAFC-PEG5-Tz] | 2.88 ± 0.53 |  | -2.4 ± 0.05 | 
3 | C/C1=C/C(=O)N(O)CCC[C@H](NC(=O)CCOCCOCCOCCOCCOCCC(=O)NCc2ccc(-c3nncnn3)cc2)C(=O)OCC/C(C)=C\C(=O)N(O)CCC[C@H](NC(=O)CCOCCOCCOCCOCCOCCC(=O)NCc2ccc(-c3nncnn3)cc2)C(=O)OCC/C(C)=C\C(=O)N(O)CCC[C@H](NC(=O)CCCCC[N+]2=C(/C=C/C=C/C=C3/N(C)c4ccc(S(=O)(=O)O)cc4C3(C)C)C(C)(C)c3cc(S(=O)(=O)[O-])ccc32)C(=O)OCC1 [SulfoCy5-FSC-(PEG5-Tz)2] | 5.91 ± 1.62 |  | -2.29 ± 0.1 | 
4 | CC(=O)N[C@H]1CCCN(O)C(=O)/C=C(/C)CCOC(=O)[C@@H](NC(=O)CCOCCOCCOCCOCCOCCC(=O)NCc2ccc(-c3nncnn3)cc2)CCCN(O)C(=O)/C=C(/C)CCOC(=O)[C@@H](NC(=O)CCCCC[N+]2=C(/C=C/C=C/C=C3/N(C)c4ccc(S(=O)(=O)O)cc4C3(C)C)C(C)(C)c3cc(S(=O)(=O)[O-])ccc32)CCCN(O)C(=O)/C=C(/C)CCOC1=O [SulfoCy5-MAFC-PEG5-Tz] | 3.09 ± 0.58 |  | -2.85 ± 0.08 | 
5 | CC(=O)N[C@H]1CCCN(O)C(=O)/C=C(/C)CCOC(=O)[C@@H](NC(=O)CCOCCOCCOCCOCCOCCC(=O)NCc2ccc(-c3nncnn3)cc2)CCCN(O)C(=O)/C=C(/C)CCOC(=O)[C@@H](NC(=O)CCCCC[N+]2=C(/C=C/C3=CC(=C/C=C4/N(C)c5ccc(S(=O)(=O)O)cc5C4(C)C)/CCC3)C(C)(C)c3cc(S(=O)(=O)[O-])ccc32)CCCN(O)C(=O)/C=C(/C)CCOC1=O [SulfoCy7-MAFC-PEG5-Tz] | 4.12 ± 0.88 |  | -1.92 ± 0.05 | higher activities in all organs

From paper PMC7249120, “Hybrid Imaging Agents for Pretargeting Applications Based on Fusarinine C—Proof of Concept” (Molecules, 2020)
